Test results reported in patent US20100197605A1, “THERAPEUTIC USE OF PEPTIDE YGLF AND COMBINATION WITH KVLPVPQ” (priority 2007, published 2010).
Where no end group is shown, it is not given here.

Columns and labels:
[1] = system: HIV-1IIIB; experiment: HIV-1 antiviral assay in CEM-SS cells (MTS readout)
[2] = system: HCMV strain AD169; experiment: HCMV plaque formation assay in MRC-5 cells; type: cell-based
Experimental: Ganciclovir was used as positive control. […] The following day, peptides were added and tested in duplicates.

[3] = system: RAW 264.7 cells; experiment: Phagocytosis assay (Fluorescein-labeled Escherichia coli, flow cytometry); settings: 10 micrograms per ml, single peptide, 30 min preincubation, 60 min ingestion
Experimental: RAW 264.7 (Mouse leukaemic monocyte macrophage cell line) cells were obtained from ATCC and grown in RPMI 1640 medium containing 10% FBS. Cells were incubated in 12×75 mm tubes at 37° C. with test peptides—10 micrograms per ml—for 30 min prior to adding Fluorescein-labeled Escherichia coli bacteria as the agent to be ingested. After the cells were incubated for additional 60 min at 37° C. and allowed to ingest the Fluorescein-labeled Escherichia coli bacteria, cells were fixed with 1% paraformaldehyde. The samples were then analyzed by flow cytometry to determine the amount of phagocytosis as a function of brightness (the greater the phagocytic activity, the more fluorescence in the macrophage population). Data are reported as % positive and the mean fluorescence intensity (MFI) of positively stained cells.

[4] = system: TNF-a, spleen cells; experiment: Th1/Th2 cytokine profiling assay, TNF-a; type: cell-based, Balb/c mice; settings: 10 micrograms per ml; Ovalbumin restimulation; 72 hours
Excerpt: (§1) The Balb/c mice (originated in 1923, it is a popular strain and is used in many different research disciplines. Also classified as an inbred from the production of 20 or more successive brother-sister matings, the Balb/c mouse is albino and small in size) were immunized on Days 1, 15, and 29 with Ovalbumin (Ovalbumin is the main protein found in egg white, commonly used to stimulate an immunological reaction in test animals) in PBS (5 micrograms/injection). On day 50, spleens of the mice were harvested (3 weeks after last boost with Ovalbumin). […] Thereafter, additional Ovalbumin was added to the cells at 10 micrograms/ml for in vitro restimulation of the cells. 72 hours later, cell supernatants were harvested and assayed using the Becton Dickinson Mouse Th1/Th2 Cytokine CBA Kit. This kit can be used to measure Interleukin-2 (IL-2), Interleukin-4 (IL-4), Interleukin-5 (IL-5), Interferon-γ (IFN-γ), and Tumor Necrosis Factor-α (TNF-α) protein levels in a single sample.

[5] = system: IFNγ, spleen cells; experiment: Th1/Th2 cytokine profiling assay, IFNγ; type: cell-based, Balb/c mice; settings: 10 micrograms per ml; Ovalbumin restimulation; 72 hours
Excerpt: as §1

[6] = system: HUVEC; experiment: Endothelial tube formation assay; type: cell-based, human; settings: 10 micrograms per ml, single peptide, 20 hours
Excerpt: Positive control was vehicle only.

[7] = system: cyclic AMP generation in human peripheral blood mononuclear cells (PBMC); experiment: cAMP induction assay (ELISA); type: cell-based; settings: single peptide, 10 min at 37° C.
Experimental: The cAMP kit was used as an immunoassay for the quantitative determination of cyclic AMP generation in human peripheral blood mononuclear cells (PBMC). PBMC were placed in 96-well microtitier plates (50 microliters of cells at 4×10^6/ml) and 50 microliters of medium alone (background control), forskolin (cAMP positive control; 50 micrograms per ml), or test peptides were added. Plates were mixed and incubated for 10 min at 37° C. and the cells were lysed by the addition of 50 microliters of 3% perchloric acid. NaOH was added to neutralize the samples. Plates were centrifuged for 15 min at 2500 rpm and the supernatants removed. The supernatants (diluted 2-fold in assay buffer) were then assayed for the levels of cAMP by ELISA.

[8] = system: IL-4, spleen cells; experiment: Th1/Th2 cytokine profiling assay, IL-4; type: cell-based, Balb/c mice; settings: 10 micrograms per ml; Ovalbumin restimulation; 72 hours
Excerpt: as §1

[9] = system: IL-2, spleen cells; experiment: Th1/Th2 cytokine profiling assay, IL-2; type: cell-based, Balb/c mice; settings: 10 micrograms per ml; Ovalbumin restimulation; 72 hours
Excerpt: as §1

[10] = system: IL-5, spleen cells; experiment: Th1/Th2 cytokine profiling assay, IL-5; type: cell-based, Balb/c mice; settings: 10 micrograms per ml; Ovalbumin restimulation; 72 hours
Excerpt: as §1

[11] = system: Human Peripheral Blood Mononuclear Cells (PBMC), B cell proliferation; experiment: B cell proliferation assay (SAC plus Interleukin-2 stimulated PBMC, 3H-thymidine); type: cell-based; settings: 10 micrograms per ml; single peptide; SAC plus IL-2
Experimental: Human Peripheral Blood Mononuclear Cells (PBMC) were obtained from normal human donors. The B cell proliferation was induced by stimulation of the cells with the B cell mitogen Staphylococcus aureus Cowans I (SAC) plus Interleukin-2, either in the absence (positive proliferation control), or in the presence of test peptides—10 micrograms per ml—to examine their effects on the B cell response. 10^5/well PBMC were plated in 96-well microtiter plates and assayed in duplicate with the peptides. […] At the end of incubation time, the plates were harvested and the cells counted by liquid scintillation for the incorporation of ^3H-thymidine as a measure of B cell proliferation.

[12] = system: hepatitis B virus (HBV) ayw strain; experiment: HBV experimental assay system, HepG2-2.2.15, secreted HBV DNA by TaqMan PCR; type: cell-based; settings: 10 micrograms per ml, six days, HBV DNA in supernatant

Molecule	antiviral activity of positive control compounds [1]	antiviral activity of positive control compound [2]	increase of the phagocytic activity of murine macrophages [3]	TNF-a spleen cells; TH1 response (% of control) [4]	IFNγ spleen cells; TH1 response (% of control) [5]	inhibition of the tube formation of endothelial cells [6]	induction of cAMP formation in human peripheral blood cells [7]	IL-4 spleen cells; TH2 response (% of control) [8]	IL-2 spleen cells (% of control) [9]	IL-5 spleen cells; TH2 response (% of control) [10]	inhibition of the proliferation of specifically stimulated human B-cells [11]	inhibition of HBV replication as compared to the virus control infection [12]
Cc1cn([C@H]2C[C@H](N=[N+]=[N-])[C@@H](CO)O2)c(=O)[nH]c1=O [AZT]	expected levels of antiviral activity	–	–	–	–	–	–	–	–	–	–	–
Nc1nc(O)c2ncn(COC(CO)CO)c2n1 [Ganciclovir]	–	expected levels of antiviral activity	–	–	–	–	–	–	–	–	–	–
CC(C)(C)NC(=O)[C@@H]1CN(Cc2cccnc2)CCN1C[C@@H](O)C[C@@H](Cc1ccccc1)C(=O)N[C@H]1c2ccccc2C[C@H]1O [indinavir]	expected levels of antiviral activity	–	–	–	–	–	–	–	–	–	–	–
Lys-Val-Leu-Pro-Val-Pro-Gln-OH (KVLPVPQ-OH) [peptide 2]	–	–	20.0%	90.3 % of control	41.5 % of control	15%	4.1%	94.9 % of control	67.3 % of control	61.6 % of control	–	–
Tyr-Gly-Leu-Phe-OH (YGLF-OH) [peptide 1]	–	–	no inhibitory or activating effects	78.9 % of control	58.6 % of control	24%	5.1%	0.0 % of control	0.0 % of control	51.1 % of control	18%	no effect
